“And” between values parts separate entries of the source, which are not always exact repeats. Identical values can stand only once.

As a reminder, the Km is the concentration of substrate that gives half-maximal velocity.

Data set [1] concerns acyl-CoA synthetase/acyl-CoA thiokinase (with AMP formation; EC 6.2.1.2). The following applies: purified enzyme, Shimizu et al. 1981; read-out: Km for substrate; cited from earlier work.
The target of data set [2] is T1, Acetoacetyl-CoA synthetase (AACS) (Rhizobium meliloti, UniProt Q9Z3R3).
T1 sequence (Q9Z3R3 1-650): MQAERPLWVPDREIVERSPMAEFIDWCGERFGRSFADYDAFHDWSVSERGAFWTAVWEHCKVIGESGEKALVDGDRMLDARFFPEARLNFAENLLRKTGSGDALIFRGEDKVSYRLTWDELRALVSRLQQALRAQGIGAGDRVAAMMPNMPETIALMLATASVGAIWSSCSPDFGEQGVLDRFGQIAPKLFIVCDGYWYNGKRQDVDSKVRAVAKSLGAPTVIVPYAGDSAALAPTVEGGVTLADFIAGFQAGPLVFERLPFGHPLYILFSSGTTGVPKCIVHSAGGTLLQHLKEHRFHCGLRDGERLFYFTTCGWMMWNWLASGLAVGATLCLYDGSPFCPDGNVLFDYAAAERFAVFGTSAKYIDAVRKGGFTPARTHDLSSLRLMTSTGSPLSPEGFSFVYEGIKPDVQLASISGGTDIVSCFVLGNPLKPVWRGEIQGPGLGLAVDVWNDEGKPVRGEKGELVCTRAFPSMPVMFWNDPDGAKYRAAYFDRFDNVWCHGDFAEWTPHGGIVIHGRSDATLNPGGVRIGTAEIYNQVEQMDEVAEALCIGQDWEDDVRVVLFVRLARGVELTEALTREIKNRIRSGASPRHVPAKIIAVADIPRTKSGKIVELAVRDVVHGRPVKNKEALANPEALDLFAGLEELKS
The following applies: purified AACS, DTNB assay.

In data set [3] the target is T2, Thioesterase II (TEIIsrf) (Bacillus subtilis, UniProt Q08788).
T2 sequence (Q08788 with tags, fused parts or gaps): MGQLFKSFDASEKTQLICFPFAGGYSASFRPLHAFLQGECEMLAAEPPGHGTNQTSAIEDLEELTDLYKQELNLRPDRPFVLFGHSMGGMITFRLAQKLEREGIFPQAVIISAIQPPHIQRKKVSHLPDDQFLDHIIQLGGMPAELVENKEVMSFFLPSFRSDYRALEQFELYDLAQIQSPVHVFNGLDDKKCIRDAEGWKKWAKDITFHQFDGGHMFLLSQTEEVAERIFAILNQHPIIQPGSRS
The following applies: read-out: Km of TEIIsrf for substrate; purified His-tagged TEIIsrf, DTNB assay 412 nm, Lineweaver-Burk.

Data set [4] concerns the target YbgC acyl-CoA thioesterase (EC 3.1.2.18) (Haemophilus influenzae, UniProt P44679). The following applies: Zhuang et al. 2002; read-out: Km of YbgC for substrate; cited from earlier work.
Data set [5] concerns CC(=O)CC(=O)SCCNC(=O)CCNC(=O)[C@H](O)C(C)(C)COP(=O)(O)OP(=O)(O)OC[C@H]1O[C@@H](n2cnc3c(N)ncnc32)[C@H](O)[C@@H]1OP(=O)(O)O. The data set is described as follows: purified protein, by the assay type. The following applies: other: YbgC elution fractions (IMPACT system), DTNB assay; measurements varied.
The subject of data set [6] is CC(=O)SCCNC(=O)CCNC(=O)[C@H](O)C(C)(C)COP(=O)(O)OP(=O)(O)OC[C@H]1O[C@@H](n2cnc3c(N)ncnc32)[C@H](O)[C@@H]1OP(=O)(O)O. The data set can be described thus: purified protein, by the assay type. The following applies: other: YbgC elution fractions (IMPACT system), DTNB assay; measurements varied.
Another data set relates to E. coli HB101. The data set is described as follows: Acetone formation in E. coli HB101, 5 ml cultures. The class given is cell-based, Escherichia coli. The following applies: HB101, LBAmp, 5 ml culture, 37° C., glucose 20 g/l, cell-free supernatant, gas chromatography. Here is the method: All the resulting plasmid variants (see Table 1) were investigated for acetone formation in the E. coli cloning strain HB101. The analyses took place on the 5 ml scale in LB medium with ampicillin (100 μg/ml) after inoculation from appropriate precultures and after incubation at 37° C. and 200 rpm. The optical density (600 nm) was followed by photometry and, at a value of about 0.5-0.6, expression of the cloned genes was induced by adding 1 mM IPTG (isopropyl β-D-thiogalactopyrano-side) and, after 3-4 h, glucose (20 g/l) was added. No induction took place with the variants under the control of the thiolase promoter because it was assumed that constitutive expression takes place. Samples were taken at particular times over a period of about 48 h, and the concentration of acetone and acetate in the cell-free medium supernatant was determined by gas chromatography. Additional glucose doses optionally took place in varying amounts (in the range 10-40 g/l) either 4 h after induction or else simultaneously with the induction.

Substrate in data set [7]: CC(=O)SCCNC(=O)CCNC(=O)[C@H](O)C(C)(C)COP(=O)(O)OP(=O)(O)OC[C@H]1O[C@@H](n2cnc3c(N)ncnc32)[C@H](O)[C@@H]1OP(=O)(O)O
The data set is described as follows: purified protein, by the assay type. The following applies: other: purified His-tagged AACS (peak 2), DTNB assay.

Substrate in data set [8]: CC(=O)CC(=O)SCCNC(=O)CCNC(=O)[C@H](O)C(C)(C)COP(=O)(O)OP(=O)(O)OC[C@H]1O[C@@H](n2cnc3c(N)ncnc32)[C@H](O)[C@@H]1OP(=O)(O)O
The data set is described as follows: purified protein, by the assay type. The following applies: other: purified His-tagged TEIIsrf, DTNB assay 412 nm, Lineweaver-Burk.

Chain of YbgC acyl-CoA thioesterase (EC 3.1.2.18) (P44679 whole entry): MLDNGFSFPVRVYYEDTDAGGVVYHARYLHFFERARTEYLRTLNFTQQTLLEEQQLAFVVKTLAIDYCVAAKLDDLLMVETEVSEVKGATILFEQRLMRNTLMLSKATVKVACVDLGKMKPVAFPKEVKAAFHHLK

Take `CCC(=O)C(=O)O` [2-ketobutyrate]: in data set [1], the Km was 25 µM.
In the case of `CC(=O)CC(=O)SCCNC(=O)CCNC(=O)[C@H](O)C(C)(C)COP(=O)(O)OP(=O)(O)OC[C@H]1O[C@@H](n2cnc3c(N)ncnc32)[C@H](O)[C@@H]1OP(=O)(O)O` [acetoacetyl-CoA], in data set [2], the “specific activity of the enzyme with substrate” value was determined as 0.0038 µmol/min/mg.
Turning to `CC(=O)SCCNC(=O)CCNC(=O)[C@H](O)C(C)(C)COP(=O)(O)OP(=O)(O)OC[C@H]1O[C@@H](n2cnc3c(N)ncnc32)[C@H](O)[C@@H]1OP(=O)(O)O` [acetyl-CoA], the Km in data set [3] stood at 200 µM.
As to `CCCC(=O)SCCNC(=O)CCNC(=O)[C@H](O)C(C)(C)COP(=O)(O)OP(=O)(O)OC[C@H]1O[C@@H](n2cnc3c(N)ncnc32)[C@H](O)[C@@H]1OP(=O)(O)O` [butyryl-CoA], the Km in [4] was 24 mM; in data set [1] it was 10 µM.
As to “Acyl-CoA thioesterase YbgC (Haemophilus influenzae Rd KW20)”, the figures for the Km in [5] and in [6] were 140 µM and 530 µM, respectively.
On to “pUC18att: plasmid SEQ ID No. 10; teIIsrf, adc, thlA in pUC18 under thl promoter”, for which, in the data set with E. coli HB101, the Max. acetone concentration was 35 mM and 2.0 g/l.
For β-hydroxybutyrate-CoA, the figures for the Km in [4] and in data set [1] were 20 mM and 25 µM, respectively.

B1: Acetoacetyl-CoA synthetase (AACS) (Sinorhizobium meliloti 1021) (protein)
chain: T1 sequence (Q9Z3R3 1-650)
B1: in data set [7], the Km is 700 µM.

B2: Thioesterase II (TEIIsrf) (Bacillus subtilis subsp. subtilis str. 168) (protein)
chain: T2 sequence (Q08788 with tags, fused parts or gaps)
As for B2, the Km in data set [8] stood at 770 µM.

These data come from patent US8986961B2, “Fermentative production of acetone from renewable resources by means of novel metabolic pathway” (Evonik Degussa GmbH, priority 2007, dated 2015).
